Laboratory results: patent US11129840B2, “Methods for identifying novel dosing regimens” (Zavante Therapeutics, Inc., priority 2017, dated 2021)
≈ marks a conversion by molar mass, not a printed value.

What was measured:
[1] = tested on: K. pneumoniae (KPC-producer) isolate; assay: Time-kill kinetic analysis; type: cell-based, Klebsiella pneumoniae
Protocol: TKK were sampled for colony counts at T0, T2, T4, T8 and T24 hours (h). Two Klebsiella pneumoniae isolates (one KPC and one ESBL), two Pseudomonas aeruginosa isolates (non-MDR), and one Acinetobacter baumannii isolate (MDR) were tested.

[2] = tested on: ESBL-producing K. pneumoniae isolate; assay: Time-kill kinetic analysis; type: cell-based, Klebsiella pneumoniae; conditions: FOS 1, 2, 4×MIC, 4 h
Protocol: Broth microdilution for FOS (Mueller-Hinton broth supplemented with 25 μg/mL glucose-6-phosphate) and comparators was performed before performing TKK. TKK employed MIC multiples for FOS, and ¼ and 1×MIC of select comparators, and combinations of FOS and comparator. TKK were sampled for colony counts at T0, T2, T4, T8 and T24 hours (h). Two Klebsiella pneumoniae isolates (one KPC and one ESBL), two Pseudomonas aeruginosa isolates (non-MDR), and one Acinetobacter baumannii isolate (MDR) were tested.

[3] = tested on: Acinetobacter-baumannii-calcoaceticus complex; assay: Reference agar dilution MIC, SENTRY US isolates; type: cell-based
Protocol: (§1) FOS was tested against over 1,400 GN and 800 GP clinical isolates collected in US medical centers as part of the SENTRY Antimicrobial Surveillance Program (96% of isolates from 2015) and a selection of 29 GN and 20 GP anaerobes. Isolates were susceptibility (S) tested against FOS and comparators by reference agar dilution (25 μg/mL glucose-6-phosphate supplementation) using existing FDA breakpoints of the oral formulation for comparative assessments.

C. freundii complex = assay: Reference agar dilution MIC, SENTRY US isolates; type: cell-based; conditions: Citrobacter freundii; randomly selected
Protocol: as §1

Citrobacter koseri = assay: Reference agar dilution MIC, SENTRY US isolates; type: cell-based; conditions: randomly selected
Protocol: as §1

E. cloacae complex = assay: Reference agar dilution MIC, SENTRY US isolates; type: cell-based; conditions: Enterobacter cloacae; randomly selected
Protocol: as §1

E. faecalis = assay: Reference agar dilution MIC, SENTRY US isolates; type: cell-based; conditions: FDA oral breakpoints
Protocol: as §1

E. faecium = assay: Reference agar dilution MIC, SENTRY US isolates; type: cell-based; conditions: FDA oral breakpoints
Protocol: as §1

Enterobacter aerogenes = assay: Reference agar dilution MIC, SENTRY US isolates; type: cell-based; conditions: Klebsiella aerogenes; randomly selected
Protocol: as §1

Enterobacteriaceae [4] = assay: Reference agar dilution MIC, SENTRY US isolates; type: cell-based; conditions: selected Enterobacteriaceae
Protocol: as §1

Escherichia coli = assay: Reference agar dilution MIC, SENTRY US isolates; type: cell-based; conditions: randomly selected
Protocol: as §1

Klebsiella pneumoniae = assay: Reference agar dilution MIC, SENTRY US isolates; type: cell-based
Protocol: as §1

Proteus mirabilis [5] = assay: Reference agar dilution MIC, SENTRY US isolates; type: cell-based; conditions: randomly selected
Protocol: as §1

Pseudomonas aeruginosa [6] = assay: Reference agar dilution MIC, SENTRY US isolates; type: cell-based
Protocol: as §1

S. agalactiae = assay: Reference agar dilution MIC, SENTRY US isolates; type: cell-based; conditions: Streptococcus agalactiae
Protocol: as §1

S. pyogenes = assay: Reference agar dilution MIC, SENTRY US isolates; type: cell-based; conditions: Streptococcus pyogenes
Protocol: as §1

S. saprophyticus = assay: Reference agar dilution MIC, SENTRY US isolates; type: cell-based; conditions: Staphylococcus saprophyticus
Protocol: as §1

Serratia marcescens = assay: Reference agar dilution MIC, SENTRY US isolates; type: cell-based; conditions: randomly selected
Protocol: as §1

Staphylococcus aureus = assay: Reference agar dilution MIC, SENTRY US isolates; type: cell-based
Protocol: as §1

[7] = tested on: coagulase-negative staphylococci (CoNS) excluding S. saprophyticus; assay: Reference agar dilution MIC, SENTRY US isolates; type: cell-based
Protocol: as §1

E. coli = assay: Reference agar dilution MIC, ZEUS baseline isolates; type: cell-based; conditions: 329 E. coli
Protocol: (§2) FOS was tested against 465 GN baseline clinical isolates collected in the cUTI clinical trial. Isolates were susceptibility (S) tested against comparator agents by reference broth microdilution and FOS by reference agar dilution (25 μg/mL glucose-6-phosphate supplementation). Existing FDA FOS breakpoints of ≤64 mg/L for the oral formulation were used for comparative assessments. Screen-positive ESBL Enterobacteriaceae isolates were characterized by whole genome sequencing and analysis for the presence of known β-lactamase genes.

[8] = tested on: ESBL-containing K. pneumoniae; assay: as above; type: cell-based; conditions: Klebsiella pneumoniae
Protocol: as §2

[9] = tested on: ESBL-containing P. mirabilis; assay: as above; type: cell-based; conditions: Proteus mirabilis; 3 isolates
Protocol: as §2

[10] = tested on: Enterobacter cloacae complex; assay: as above; type: cell-based
Protocol: as §2

Enterobacteriaceae [11] = assay: as above; type: cell-based
Protocol: as §2

[12] = tested on: K. pneumoniae isolates with carbapenemase genes NDM-1 and OXA-48; assay: as above; type: cell-based; conditions: Klebsiella pneumoniae
Protocol: as §2

Proteus mirabilis [13] = assay: as above; type: cell-based; conditions: 20 isolates
Protocol: as §2

Pseudomonas aeruginosa [14] = assay: as above; type: cell-based
Protocol: as §2

[15] = tested on: Carbapenem-resistant Enterobacteriaceae (CRE) clinical isolates; assay: Susceptibility testing, CRE clinical isolates; type: cell-based
Enterobacteriaceae [16] = assay: MIC distribution for 1,091 Enterobacteriaceae isolates from USA; type: cell-based

`C[C@@H]1O[C@@H]1P(=O)(O)O` [FOS, fosfomycin] was tested, and the “increase in bacterial growth” value ([1]; FOS 0.5, 1 and 2×MIC, by 24 h) was “approximately 2 log10”, the “log10 reduction in bacterial growth (CFU)” value ([1]; FOS 2×MIC, by 4 h) was greater than 3 log10 and the killing activity ([1]; FOS alone) was “bactericidal”. The “decrease in CFU” value [2] was 1.4-2.2 log10 CFU, the MIC50 [3] was 128 µg/mL (≈ 927 µM) and the MIC90 [3] was 256 µg/mL (≈ 1850 µM). It also gave an MIC50 (C. freundii complex) of 0.5 µg/mL (≈ 3.62 µM), an MIC90 (C. freundii complex) of 1 µg/mL (≈ 7.24 µM) and an MIC50 (Citrobacter koseri) of 1 µg/mL (≈ 7.24 µM). The MIC90 (Citrobacter koseri) was 1 µg/mL (≈ 7.24 µM), the MIC50 (E. cloacae complex) was 8 µg/mL (≈ 57.9 µM) and the MIC90 (E. cloacae complex) was 64 µg/mL (≈ 464 µM). The “% S” value (E. faecalis) was 99.0%, the “% intermediate” value (E. faecalis) was 1.0% and the “% S” value (E. faecium) was 79.8%. For the same compound, the “% intermediate” value (E. faecium) was 19.2%, the MIC50 (Enterobacter aerogenes) was 8 µg/mL (≈ 57.9 µM) and the MIC90 (Enterobacter aerogenes) was 16 µg/mL (≈ 116 µM). The MIC50 (Enterobacteriaceae [4]) was 4 µg/mL (≈ 29 µM), the MIC50 (Escherichia coli; Escherichia coli) was 0.5 µg/mL (≈ 3.62 µM) and the MIC90 (Escherichia coli; Escherichia coli) was 1 µg/mL (≈ 7.24 µM). The “% S to FOS” value (Escherichia coli; FDA oral breakpoints) was 100.0%, the “% of isolates ≤64 μg/mL” value (Klebsiella pneumoniae) was 97.0% and the MIC50 (Klebsiella pneumoniae; Klebsiella pneumoniae) was 4 µg/mL (≈ 29 µM). The MIC90 (Klebsiella pneumoniae; Klebsiella pneumoniae) was 16 µg/mL (≈ 116 µM), the MIC50 (Proteus mirabilis [5]) was 1 µg/mL (≈ 7.24 µM) and the MIC90 (Proteus mirabilis [5]) was 8 µg/mL (≈ 57.9 µM). It also gave an MIC50 (Pseudomonas aeruginosa [6]) of 64 µg/mL (≈ 464 µM), an MIC90 (Pseudomonas aeruginosa [6]) of 128 µg/mL (≈ 927 µM) and an MIC50 (S. agalactiae) of 8 µg/mL (≈ 57.9 µM). The MIC90 (S. agalactiae) was 64 µg/mL (≈ 464 µM), the MIC50 (S. pyogenes) was 32 µg/mL (≈ 232 µM) and the MIC90 (S. pyogenes) was 64 µg/mL (≈ 464 µM). For the same compound, the MIC50 (S. saprophyticus) was 128 µg/mL (≈ 927 µM), the MIC90 (S. saprophyticus) was greater than 256 µg/mL and the MIC50 (Serratia marcescens) was 8 µg/mL (≈ 57.9 µM). The MIC90 (Serratia marcescens) was 16 µg/mL (≈ 116 µM), the MIC50 (Staphylococcus aureus) was 4 µg/mL (≈ 29 µM) and the MIC90 (Staphylococcus aureus) was 8 µg/mL (≈ 57.9 µM). The MIC50 [7] was 8 µg/mL (≈ 57.9 µM), the MIC90 ([7]; Staphylococcus saprophyticus) was 64 µg/mL (≈ 464 µM) and the “% S to FOS” value (E. coli) was 100.0%. The MIC90 [8] was 128 µg/mL (≈ 927 µM), the MIC50 ([8]; 28 isolates) was 16 µg/mL (≈ 116 µM) and the MIC50 [9] was 2 µg/mL (≈ 14.5 µM). For the same compound, the MIC90 [10] was 128 µg/mL (≈ 927 µM), the MIC50 ([10]; 14 isolates) was 16 µg/mL (≈ 116 µM) and the “% of isolates ≤64 mg/L” value (Enterobacteriaceae [11]) was 96.4%. It also gave an MIC50 (Enterobacteriaceae [11]) of 1 µg/mL (≈ 7.24 µM), an MIC90 (Enterobacteriaceae [11]) of 16 µg/mL (≈ 116 µM) and an MIC ([12]; NDM-1 isolate) of 8 µg/mL (≈ 57.9 µM). The MIC ([12]; OXA-48 isolate) was 64 µg/mL (≈ 464 µM), the MIC50 (Proteus mirabilis [13]) was 2 µg/mL (≈ 14.5 µM) and the MIC90 (Proteus mirabilis [13]) was 32 µg/mL (≈ 232 µM). It also gave an MIC90 (Pseudomonas aeruginosa [14]) of 256 µg/mL (≈ 1850 µM), an MIC50 (Pseudomonas aeruginosa [14]; 21 isolates) of 64 µg/mL (≈ 464 µM) and an MIC ([15]; FOS R isolate with fosA2 and SNP in glpT) of 256 µg/mL (≈ 1850 µM). For the same compound, the MIC ([15]; FOS-R isolate harboring fosA3) was greater than 1020 µg/mL, the “No. of isolates with FOS MIC>64 μg/mL” value ([15]; of 50 isolates) was 3 and the MIC ([15]; third FOS-R isolate (OXA-181+, CTXM-15+Kp)) was 128 µg/mL (≈ 927 µM). For the same compound, the MIC90 (Enterobacteriaceae [16]) was 16 mgL.
